Laboratory results published in ChEMBL document CHEMBL6134801, “SMARCA2 protein: Structure, function and perspectives of drug design” (Eur J Med Chem, 2025).

How the values were obtained:
[1] = biological target: T1, SWI/SNF-related matrix-associated actin-dependent regulator of chromatin subfamily A member 2 (Homo sapiens, UniProt P51531); test: Inhibition of SMARCA2 (unknown origin)
[2] = biological target: T1, SWI/SNF-related matrix-associated actin-dependent regulator of chromatin subfamily A member 2; test: Induction of thermal stabilization of SMARCA2 (unknown origin) assessed as change in melting temperature by fluorescence based thermal shift assay

T1 sequence (P51531 whole entry): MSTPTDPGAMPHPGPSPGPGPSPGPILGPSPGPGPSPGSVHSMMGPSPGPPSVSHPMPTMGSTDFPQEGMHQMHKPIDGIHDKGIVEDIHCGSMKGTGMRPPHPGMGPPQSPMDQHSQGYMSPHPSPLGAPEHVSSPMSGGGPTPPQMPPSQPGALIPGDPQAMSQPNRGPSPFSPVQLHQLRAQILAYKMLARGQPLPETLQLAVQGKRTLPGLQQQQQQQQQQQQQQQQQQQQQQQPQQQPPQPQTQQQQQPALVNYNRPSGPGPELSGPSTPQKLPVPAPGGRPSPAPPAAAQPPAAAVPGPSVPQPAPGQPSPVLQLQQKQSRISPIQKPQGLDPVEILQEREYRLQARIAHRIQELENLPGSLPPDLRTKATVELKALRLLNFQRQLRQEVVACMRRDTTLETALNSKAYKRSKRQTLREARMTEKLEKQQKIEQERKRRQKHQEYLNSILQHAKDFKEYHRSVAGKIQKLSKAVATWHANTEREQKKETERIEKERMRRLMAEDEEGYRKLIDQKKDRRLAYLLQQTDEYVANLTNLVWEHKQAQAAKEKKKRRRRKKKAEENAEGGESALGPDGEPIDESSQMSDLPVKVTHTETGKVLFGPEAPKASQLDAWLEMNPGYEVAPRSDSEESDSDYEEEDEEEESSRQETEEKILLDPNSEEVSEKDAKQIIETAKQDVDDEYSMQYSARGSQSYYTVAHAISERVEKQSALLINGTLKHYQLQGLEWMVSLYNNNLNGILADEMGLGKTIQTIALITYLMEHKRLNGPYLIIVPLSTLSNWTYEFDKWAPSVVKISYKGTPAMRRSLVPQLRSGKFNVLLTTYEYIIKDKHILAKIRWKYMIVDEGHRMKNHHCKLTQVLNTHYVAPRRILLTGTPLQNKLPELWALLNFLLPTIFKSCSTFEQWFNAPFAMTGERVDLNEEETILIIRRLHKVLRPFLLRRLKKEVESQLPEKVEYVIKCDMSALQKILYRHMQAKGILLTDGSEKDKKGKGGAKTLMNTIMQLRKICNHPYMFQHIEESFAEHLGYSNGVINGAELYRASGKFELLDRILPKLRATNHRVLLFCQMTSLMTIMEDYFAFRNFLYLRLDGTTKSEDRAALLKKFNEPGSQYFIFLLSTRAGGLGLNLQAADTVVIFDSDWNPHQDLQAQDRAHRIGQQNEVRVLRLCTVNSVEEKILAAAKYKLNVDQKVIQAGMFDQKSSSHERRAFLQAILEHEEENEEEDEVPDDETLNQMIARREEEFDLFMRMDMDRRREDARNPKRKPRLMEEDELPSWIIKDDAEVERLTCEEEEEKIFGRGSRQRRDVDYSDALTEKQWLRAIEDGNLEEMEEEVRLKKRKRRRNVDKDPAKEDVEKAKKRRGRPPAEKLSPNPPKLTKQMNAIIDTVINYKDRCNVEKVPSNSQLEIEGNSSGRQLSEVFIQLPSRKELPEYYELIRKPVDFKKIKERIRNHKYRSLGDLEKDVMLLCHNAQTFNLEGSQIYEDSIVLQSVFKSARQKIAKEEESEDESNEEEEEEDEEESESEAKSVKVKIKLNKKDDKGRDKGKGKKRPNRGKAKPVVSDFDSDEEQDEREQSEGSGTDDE

COc1cc(CNCc2ccccn2)ccc1OCc1ccccc1F
IC50 [1]: 9 µM

COc1cc(CNCc2ccccn2)ccc1OCc1cccs1
IC50 [1]: 17 µM

COc1cc(CNCc2ccccn2)ccc1OCc1cccc(Cl)c1
IC50 [1]: 9.2 µM

COc1cc(CNCc2ccccn2)cc(Cl)c1OCc1ccc(Cl)cc1Cl
IC50 [1]: 9.1 µM

COc1cc(CNCc2ccccn2)cc(Cl)c1OCc1ccc(Cl)cc1
IC50 [1]: 30.2 µM

O=C(O)c1ccccc1O
ΔTm [2]: 1.3 °C
